# Assay results published in US20250312499A1, “KISSPEPTIN RECEPTOR (KISS1R) TARGETED THERAPEUTICS AND USES THEREOF” (priority 2024, published 2025).
# Numbered stars: 1 amine (or outer) side, 2 acyl side, 3 side chain; on linkers, the order of the positions; unused ones are H or OH. Square brackets hold non-standard residues; d marks the D form. Peptide text beside a SMILES is read from it. * marks the point of attachment. DOTA = O=C(O)CN1CCN(CC(=O)O)CCN(CC(=O)*)CCN(CC(=O)O)CC1; Ala(9-anthryl) = N[C@@H](Cc1c2ccccc2cc2ccccc12)C(=O)O; Gly(N-(3-F-4-Me-benzyl)) = Cc1ccc(CNCC(=O)*)cc1F; Butanoyl(4-(4-I-phenyl)) = O=C(CCCc1ccc(I)cc1)*; Propanoyl(3-(MeO(CH2CH2O)2)) = COCCOCCOCCC(=O)*; Butanoyl(4-(4-MePh)) = Cc1ccc(CCCC(=O)*)cc1; Api(1-amidino) = N=C(N)N1CCC(N)(C(=O)O)CC1; Phe(4-CN) = N#Cc1ccc(C[C@H](N)C(=O)O)cc1; Phe(3-F) = N[C@@H](Cc1cccc(F)c1)C(=O)O; 2Nal = N[C@@H](Cc1ccc2ccccc2c1)C(=O)O; d2Nal = N[C@H](Cc1ccc2ccccc2c1)C(=O)O; Trx = NC[C@H]1CC[C@H](C(=O)O)CC1; X1 = O=C(CN1CCC(N[*:1])CC1)[*:2]; 4Pal = N[C@@H](Cc1ccncc1)C(=O)O; Cha = N[C@@H](CC1CCCCC1)C(=O)O; 4Amb = NCc1ccc(C(=O)O)cc1; Api = NC1(C(=O)O)CCNCC1; PEG2 = NCCOCCOCCC(=O)O; Ahx = NCCCCCC(=O)O; azaGly = NNC(=O)O
# Biological target: human kisspeptin receptor (Homo sapiens (Human), UniProt Q969F8)
# Sequence (Q969F8 whole entry): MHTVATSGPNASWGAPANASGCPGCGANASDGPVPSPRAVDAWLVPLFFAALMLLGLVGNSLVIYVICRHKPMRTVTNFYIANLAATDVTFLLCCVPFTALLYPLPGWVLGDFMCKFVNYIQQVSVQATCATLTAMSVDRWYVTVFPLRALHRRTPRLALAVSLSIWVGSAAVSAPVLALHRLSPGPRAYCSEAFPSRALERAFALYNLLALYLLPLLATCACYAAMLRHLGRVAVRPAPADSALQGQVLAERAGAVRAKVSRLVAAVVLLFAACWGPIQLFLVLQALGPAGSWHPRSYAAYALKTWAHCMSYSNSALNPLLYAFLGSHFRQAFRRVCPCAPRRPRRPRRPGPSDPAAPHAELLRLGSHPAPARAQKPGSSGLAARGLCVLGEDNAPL
# Assay: Human KISS1R binding assay (membrane competition binding)
# Settings: 90 min at room temperature; competition with 0.2 nM [125I]-metastin (45-54); Flp-In T-Rex 293 kisspeptin membranes; metal complexes nonradioactive Ga, In, Lu; read-out: hKiSSR Binding Ki (90 min)
# How it was run: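 Membranes from tetracycline-induced (48 h) Flp-In T-Rex 293 cells expressing receptor, 5–10 μg, incubated 90 min at room temperature with 0.2 nM [125I]-metastin (45-54) and competitor (typically 0–10,000 nM) in Tris/Mg/Ca/EGTA/0.1% BSA, pH 7.4. Filtration, washing, counting; Ki by non-linear regression.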
row,Compound,Ki
1,Cc1ccc(CNCC(=O)N2CCC(NC(=O)c3ccc(-c4ccccc4OCCNC(=O)[C@H](Cc4ccccc4)NC(=O)CCCCCNC(=O)CN4CCN(CC(=O)O)CCN(CC(=O)O)CCN(CC(=O)O)CC4)cc3)(C(=O)N[C@@H](Cc3c[nH]c4ccccc34)C(N)=O)CC2)cc1F [Compound 283],10 to 100 nM
2,Cc1ccc(CNCC(=O)N2CCC(NC(=O)[C@H](CC(C)C)NC(=O)NNC(=O)[C@H](Cc3ccccc3)NC(=O)CCCCCNC(=O)[C@H](Cc3ccc4ccccc4c3)NC(=O)[C@@H](Cc3ccc(O)cc3)NC(=O)CN3CCN(CC(=O)O)CCN(CC(=O)O)CCN(CC(=O)O)CC3)(C(=O)N[C@@H](Cc3ccncc3)C(N)=O)CC2)cc1F [Compound 286] ({DOTA}-[dY][2Nal][Ahx]F[azaGly]L[Api](Gly(N-(3-F-4-Me-benzyl)))[4Pal]-NH2),< 10 nM
3,Cc1ccc(CNCC(=O)N2CCC(NC(=O)[C@H](CC(C)C)NC(=O)NNC(=O)[C@H](Cc3ccccc3)NC(=O)[C@@H](CC(N)=O)NC(=O)CN3CCN(CC(=O)O)CCN(CC(=O)O)CCN(CC(=O)O)CC3)(C(=O)N[C@@H](Cc3c[nH]c4ccccc34)C(N)=O)CC2)cc1F [Compound 21] ({DOTA}-[dN]F[azaGly]L[Api](Gly(N-(3-F-4-Me-benzyl)))W-NH2),10 to 100 nM
4,Cc1ccc(CNCC(=O)N2CCC(NC(=O)[C@H](CC(C)C)NC(=O)NNC(=O)[C@H](CC3CCCCC3)NC(=O)c3ccc(CNC(=O)CN4CCN(CC(=O)O)CCN(CC(=O)O)CCN(CC(=O)O)CC4)cc3)(C(=O)N[C@@H](Cc3c[nH]c4ccccc34)C(N)=O)CC2)cc1F [Compound 261] ({DOTA-4Amb}-[Cha][azaGly]L[Api](Gly(N-(3-F-4-Me-benzyl)))W-NH2),< 10 nM
5,Cc1ccc(CNCC(=O)N2CCC(NC(=O)[C@H](CC(C)C)NC(=O)NNC(=O)[C@H](Cc3cccc(F)c3)NC(=O)[C@@H](NC(=O)[C@H](CC(N)=O)NC(=O)[C@@H](CCC(=O)O)NC(=O)[C@H]3CC[C@H](CNC(=O)CN4CCN(CC(=O)O)CCN(CC(=O)O)CCN(CC(=O)O)CC4)CC3)[C@@H](C)O)(C(=O)N[C@@H](Cc3c[nH]c4ccccc34)C(N)=O)CC2)cc1F [Compound 161] ({DOTA-Trx}-[dE]NT[Phe(3-F)][azaGly]L[Api](Gly(N-(3-F-4-Me-benzyl)))W-NH2),< 10 nM
6,Cc1ccc(CNCC(=O)N2CCC(NC(=O)[C@H](CC(C)C)NC(=O)NNC(=O)[C@H](Cc3ccccc3)NC(=O)[C@@H](C)NC(=O)[C@@H](C)NC(=O)[C@@H](C)NC(=O)[C@@H](C)NC(=O)[C@@H](C)NC(=O)CCCCCNC(=O)CN3CCN(CC(=O)O)CCN(CC(=O)O)CCN(CC(=O)O)CC3)(C(=O)N[C@@H](Cc3c[nH]c4ccccc34)C(N)=O)CC2)cc1F [Compound 13] ({DOTA-Ahx}-[dA][dA][dA][dA][dA]F[azaGly]L[Api](Gly(N-(3-F-4-Me-benzyl)))W-NH2),10 to 100 nM
7,Cc1ccc(CNCC(=O)N2CCC(NC(=O)[C@@H](CC(C)C)SCCNC(=O)[C@H](Cc3ccccc3)NC(=O)CCCCCNC(=O)CN3CCN(CC(=O)O)CCN(CC(=O)O)CCN(CC(=O)O)CC3)(C(=O)N[C@@H](Cc3c[nH]c4ccccc34)C(N)=O)CC2)cc1F [Compound 137],< 10 nM
8,Cc1ccc(CNCC(=O)N2CCC(NC(=O)c3ccnc(CNC(=O)[C@H](Cc4ccccc4)NC(=O)CCCCCNC(=O)CN4CCN(CC(=O)O)CCN(CC(=O)O)CCN(CC(=O)O)CC4)c3)(C(=O)N[C@@H](Cc3c[nH]c4ccccc34)C(N)=O)CC2)cc1F [Compound 136],> 100 nM
9,Cc1ccc(CNCC(=O)N2CCC(NC(=O)[C@H](CC(C)C)NC(=O)NNC(=O)[C@H](Cc3ccccc3)NC(=O)[C@@H](NC(=O)CN3CCC(NC(=O)CN4CCN(CC(=O)O)CCN(CC(=O)O)CCN(CC(=O)O)CC4)CC3)[C@@H](C)O)(C(=O)N[C@@H](Cc3ccc(O)cc3)C(N)=O)CC2)cc1F [Compound 250] ({DOTA}-[X1]TF[azaGly]L[Api](Gly(N-(3-F-4-Me-benzyl)))Y-NH2),< 10 nM
10,Cc1ccc(CNCC(=O)N2CCC(NC(=O)[C@H](CC(C)C)NC(=O)NNC(=O)[C@H](Cc3ccccc3)NC(=O)[C@H]3CC[C@H](CNC(=O)c4ccc(CNC(=O)CN5CCN(CC(=O)O)CCN(CC(=O)O)CCN(CC(=O)O)CC5)cc4)CC3)(C(=O)N[C@@H](Cc3c[nH]c4ccccc34)C(N)=O)CC2)cc1F [Compound 110] ({DOTA-4Amb-Trx}-F[azaGly]L[Api](Gly(N-(3-F-4-Me-benzyl)))W-NH2),< 10 nM
11,CC(C)C[C@H](NC(=O)NNC(=O)[C@H](Cc1ccccc1)NC(=O)[C@@H](NC(=O)[C@H](CC(N)=O)NC(=O)[C@@H](Cc1ccc2ccccc2c1)NC(=O)[C@@H](Cc1ccc(O)cc1)NC(=O)CCOCCOCCN)[C@@H](C)O)C(=O)NC1(C(=O)N[C@@H](Cc2c[nH]c3ccccc23)C(N)=O)CCN(C(=N)N)CC1 [Compound 410] (H-[PEG2][dY][d2Nal]NTF[azaGly]L[Api(1-amidino)]W-NH2),< 10 nM
12,Cc1ccc(CNCC(=O)N2CCC(NC(=O)[C@H](CC(C)C)NC(=O)NNC(=O)[C@H](Cc3ccccc3)NC(=O)[C@@H](CC(N)=O)NC(=O)[C@@H](CC(N)=O)NC(=O)CN3CCN(CC(=O)O)CCN(CC(=O)O)CCN(CC(=O)O)CC3)(C(=O)N[C@@H](Cc3c[nH]c4ccccc34)C(N)=O)CC2)cc1F [Compound 18] ({DOTA}-[dN][dN]F[azaGly]L[Api](Gly(N-(3-F-4-Me-benzyl)))W-NH2),10 to 100 nM

# More lines, now with the values ahead:
row,Ki,Compound
1,< 10 nM,CC(C)C[C@H](NC(=O)NNC(=O)[C@H](Cc1ccccc1)NC(=O)[C@@H](NC(=O)[C@H](CC(N)=O)NC(=O)[C@@H](Cc1ccc2ccccc2c1)NC(=O)[C@@H](Cc1ccc(O)cc1)NC(=O)CCCCCNC(=O)[C@@H](CCCCNC(=O)CCCc1ccc(I)cc1)NC(=O)CCCCCNC(=O)CN1CCN(CC(=O)O)CCN(CC(=O)O)CCN(CC(=O)O)CC1)[C@@H](C)O)C(=O)NC1(C(=O)N[C@@H](Cc2c[nH]c3ccccc23)C(N)=O)CCN(C(=N)N)CC1 [Compound 337] ({DOTA-Ahx}-[dK](Butanoyl(4-(4-I-phenyl)))[Ahx][dY][d2Nal]NTF[azaGly]L[Api(1-amidino)]W-NH2)
2,< 10 nM,Cc1ccc(CCCC(=O)NCCCC[C@@H](NC(=O)CCCCCNC(=O)CN2CCN(CC(=O)O)CCN(CC(=O)O)CCN(CC(=O)O)CC2)C(=O)N[C@H](Cc2ccc(O)cc2)C(=O)N[C@H](Cc2ccc3ccccc3c2)C(=O)N[C@@H](CC(N)=O)C(=O)N[C@H](C(=O)N[C@@H](Cc2ccccc2)C(=O)NNC(=O)N[C@@H](CC(C)C)C(=O)NC2(C(=O)N[C@@H](Cc3c[nH]c4ccccc34)C(N)=O)CCN(C(=N)N)CC2)[C@@H](C)O)cc1 [Compound 335] ({DOTA-Ahx}-[dK](Butanoyl(4-(4-MePh)))[dY][d2Nal]NTF[azaGly]L[Api(1-amidino)]W-NH2)
3,< 10 nM,Cc1ccc(CNCC(=O)N2CCC(NC(=O)[C@H](CC(C)C)NC(=O)NNC(=O)[C@H](Cc3ccccc3)NC(=O)[C@@H](NC(=O)[C@H](CC(N)=O)NC(=O)NNC(=O)[C@@H](Cc3ccc(O)cc3)NC(=O)CCCCCNC(=O)CN3CCN(CC(=O)O)CCN(CC(=O)O)CCN(CC(=O)O)CC3)[C@@H](C)O)(C(=O)N[C@@H](Cc3c[nH]c4ccccc34)C(N)=O)CC2)cc1F [Compound 108] ({DOTA-Ahx}-[dY][azaGly]NTF[azaGly]L[Api](Gly(N-(3-F-4-Me-benzyl)))W-NH2)
4,< 10 nM,COCCOCCOCCC(=O)N[C@H](Cc1ccc(O)cc1)C(=O)N[C@@H](CCCCNC(=O)CN1CCN(CC(=O)O)CCN(CC(=O)O)CCN(CC(=O)O)CC1)C(=O)N[C@@H](CC(N)=O)C(=O)N[C@H](C(=O)N[C@@H](Cc1ccccc1)C(=O)NNC(=O)N[C@@H](CC(C)C)C(=O)NC1(C(=O)N[C@@H](Cc2c[nH]c3ccccc23)C(N)=O)CCN(C(=N)N)CC1)[C@@H](C)O [Compound 197] ({Propanoyl(3-(MeO(CH2CH2O)2))}-[dY]K(DOTA)NTF[azaGly]L[Api(1-amidino)]W-NH2)
5,< 10 nM,Cc1ccc(CNCC(=O)N2CCC(NC(=O)[C@H](CC(C)C)NC(=O)NNC(=O)[C@H](Cc3ccccc3)NC(=O)[C@@H](NC(=O)[C@H](CC(N)=O)NC(=O)[C@@H](Cc3ccc4ccccc4c3)NC(=O)CCCCCNC(=O)CN3CCN(CC(=O)O)CCN(CC(=O)O)CCN(CC(=O)O)CC3)[C@@H](C)O)(C(=O)N[C@@H](Cc3ccncc3)C(N)=O)CC2)cc1F [Compound 292] ({DOTA-Ahx}-[d2Nal]NTF[azaGly]L[Api](Gly(N-(3-F-4-Me-benzyl)))[4Pal]-NH2)
6,< 10 nM,Cc1ccc(CNCC(=O)N2CCC(NC(=O)[C@H](CC(C)C)NC(=O)NNC(=O)[C@H](Cc3ccccc3)NC(=O)[C@@H](NC(=O)[C@H](CC(N)=O)NC(=O)[C@@H](Cc3c[nH]c4ccccc34)NC(=O)[C@@H](Cc3ccc(O)cc3)NC(=O)CCCCCNC(=O)CN3CCN(CC(=O)O)CCN(CC(=O)O)CCN(CC(=O)O)CC3)[C@@H](C)O)(C(=O)N[C@@H](Cc3c[nH]c4ccccc34)C(N)=O)CC2)cc1F [Compound 1] ({DOTA-Ahx}-[dY][dW]NTF[azaGly]L[Api](Gly(N-(3-F-4-Me-benzyl)))W-NH2)
7,< 10 nM,CC(C)C[C@H](NC(=O)NNC(=O)[C@H](Cc1ccccc1)NC(=O)[C@@H](NC(=O)[C@H](CC(N)=O)NC(=O)[C@H](Cc1ccc2ccccc2c1)NC(=O)[C@@H](Cc1ccc(O)cc1)NC(=O)CCCCCNC(=O)CN1CCN(CC(=O)O)CCN(CC(=O)O)CCN(CC(=O)O)CC1)[C@@H](C)O)C(=O)NC1(C(=O)N[C@@H](Cc2ccc(C#N)cc2)C(N)=O)CCN(C(=N)N)CC1 [Compound 278] ({DOTA-Ahx}-[dY][2Nal]NTF[azaGly]L[Api(1-amidino)][Phe(4-CN)]-NH2)
8,< 10 nM,CC(C)C[C@H](NC(=O)NNC(=O)[C@H](Cc1ccccc1)NC(=O)[C@@H](NC(=O)[C@H](CC(N)=O)NC(=O)[C@H](Cc1c2ccccc2cc2ccccc12)NC(=O)[C@@H](Cc1ccc(O)cc1)NC(=O)CCCCCNC(=O)CN1CCN(CC(=O)O)CCN(CC(=O)O)CCN(CC(=O)O)CC1)[C@@H](C)O)C(=O)NC1(C(=O)N[C@@H](Cc2ccncc2)C(N)=O)CCN(C(=N)N)CC1 [Compound 222] ({DOTA-Ahx}-[dY][Ala(9-anthryl)]NTF[azaGly]L[Api(1-amidino)][4Pal]-NH2)
